From ChEMBL document CHEMBL4507319 (2021)

Columns and labels:
[1] = target: Casein kinase II subunit alpha (Homo sapiens) (UniProt P68400); experiment: CK2alpha1(h) Eurofins kinase panel; settings: Compound concentration 1.0 uM
[2] = target: Fibroblast growth factor receptor 2 (Homo sapiens) (UniProt P21802); experiment: FGFR2(h) Eurofins kinase panel; settings: Compound concentration 1.0 uM
[3] = target: T1, Serine/threonine-protein kinase ICK (Homo sapiens) (UniProt Q9UPZ9); experiment: ICK(h) Eurofins kinase panel; settings: Compound concentration 1.0 uM
T1 sequence (whole entry): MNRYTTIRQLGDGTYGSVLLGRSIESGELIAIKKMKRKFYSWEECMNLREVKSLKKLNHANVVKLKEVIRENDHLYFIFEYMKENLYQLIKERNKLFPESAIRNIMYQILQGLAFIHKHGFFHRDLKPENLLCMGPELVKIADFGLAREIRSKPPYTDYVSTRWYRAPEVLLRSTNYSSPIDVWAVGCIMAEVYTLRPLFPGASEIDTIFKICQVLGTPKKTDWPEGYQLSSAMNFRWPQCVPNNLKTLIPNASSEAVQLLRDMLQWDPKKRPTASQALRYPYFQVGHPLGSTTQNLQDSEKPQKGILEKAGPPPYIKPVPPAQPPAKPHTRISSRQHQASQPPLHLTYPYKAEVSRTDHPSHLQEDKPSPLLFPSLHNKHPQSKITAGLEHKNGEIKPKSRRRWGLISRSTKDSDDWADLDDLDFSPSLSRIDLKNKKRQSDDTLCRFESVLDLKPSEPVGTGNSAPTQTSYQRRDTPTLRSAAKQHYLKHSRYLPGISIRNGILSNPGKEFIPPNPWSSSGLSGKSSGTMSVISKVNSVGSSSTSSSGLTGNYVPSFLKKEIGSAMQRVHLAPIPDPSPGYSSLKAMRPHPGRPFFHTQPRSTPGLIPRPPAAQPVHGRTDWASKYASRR

[4] = target: T2, Inhibitor of nuclear factor kappa-B kinase subunit beta (Homo sapiens) (UniProt O14920); experiment: IKKbeta(h) Eurofins kinase panel; settings: Compound concentration 1.0 uM
T2 sequence (whole entry): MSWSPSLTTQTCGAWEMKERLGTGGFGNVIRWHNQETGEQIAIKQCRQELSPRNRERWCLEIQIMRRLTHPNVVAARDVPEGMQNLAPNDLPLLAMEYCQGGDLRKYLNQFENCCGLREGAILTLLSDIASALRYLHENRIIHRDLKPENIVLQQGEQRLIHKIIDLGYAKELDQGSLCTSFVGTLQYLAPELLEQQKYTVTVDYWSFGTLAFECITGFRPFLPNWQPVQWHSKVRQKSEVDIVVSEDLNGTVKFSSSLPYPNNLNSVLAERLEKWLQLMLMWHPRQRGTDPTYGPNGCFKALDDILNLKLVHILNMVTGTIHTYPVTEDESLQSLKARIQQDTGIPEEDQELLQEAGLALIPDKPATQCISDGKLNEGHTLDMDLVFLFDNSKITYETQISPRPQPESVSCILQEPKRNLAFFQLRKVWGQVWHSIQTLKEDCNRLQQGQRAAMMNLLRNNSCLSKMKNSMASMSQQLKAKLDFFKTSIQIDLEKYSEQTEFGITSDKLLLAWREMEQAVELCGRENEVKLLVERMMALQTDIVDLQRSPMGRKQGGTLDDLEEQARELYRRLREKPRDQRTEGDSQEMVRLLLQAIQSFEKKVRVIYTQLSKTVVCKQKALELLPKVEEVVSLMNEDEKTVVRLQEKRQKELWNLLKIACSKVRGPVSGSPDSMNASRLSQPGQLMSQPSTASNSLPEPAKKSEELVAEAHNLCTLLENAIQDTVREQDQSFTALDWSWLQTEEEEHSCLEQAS

[5] = target: Serine/threonine-protein kinase/endoribonuclease IRE1 (Homo sapiens) (UniProt O75460); experiment: IRE1(h) Eurofins kinase panel; settings: Compound concentration 1.0 uM
Serine/threonine-protein kinase/endoribonuclease IRE1 (Homo sapiens), sequence (O75460 19-977 limits assumed): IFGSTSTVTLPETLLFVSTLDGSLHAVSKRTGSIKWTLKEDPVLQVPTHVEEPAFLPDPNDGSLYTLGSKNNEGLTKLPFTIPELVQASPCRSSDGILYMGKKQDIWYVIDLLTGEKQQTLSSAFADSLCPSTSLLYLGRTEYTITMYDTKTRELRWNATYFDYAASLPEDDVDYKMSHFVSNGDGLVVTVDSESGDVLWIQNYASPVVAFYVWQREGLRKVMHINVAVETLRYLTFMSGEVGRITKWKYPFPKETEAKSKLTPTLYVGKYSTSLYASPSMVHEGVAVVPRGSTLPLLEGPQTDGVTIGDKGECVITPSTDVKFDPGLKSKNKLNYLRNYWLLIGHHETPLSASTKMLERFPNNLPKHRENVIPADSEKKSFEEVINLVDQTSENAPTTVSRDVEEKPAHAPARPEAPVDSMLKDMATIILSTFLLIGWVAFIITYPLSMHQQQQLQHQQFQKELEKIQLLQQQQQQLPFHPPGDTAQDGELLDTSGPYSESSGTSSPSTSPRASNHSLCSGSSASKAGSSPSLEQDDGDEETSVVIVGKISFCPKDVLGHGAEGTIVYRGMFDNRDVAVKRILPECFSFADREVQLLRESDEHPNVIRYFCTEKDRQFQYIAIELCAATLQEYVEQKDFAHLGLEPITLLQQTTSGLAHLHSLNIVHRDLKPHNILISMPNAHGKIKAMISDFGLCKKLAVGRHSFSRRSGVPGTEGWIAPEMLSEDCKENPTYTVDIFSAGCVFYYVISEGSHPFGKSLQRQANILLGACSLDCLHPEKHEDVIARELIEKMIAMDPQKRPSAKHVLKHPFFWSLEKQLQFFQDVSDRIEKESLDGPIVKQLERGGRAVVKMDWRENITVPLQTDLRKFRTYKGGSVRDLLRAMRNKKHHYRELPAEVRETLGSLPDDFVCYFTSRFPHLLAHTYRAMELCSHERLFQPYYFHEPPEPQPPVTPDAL

[6] = target: Mitogen-activated protein kinase kinase kinase kinase 5 (Homo sapiens) (UniProt Q9Y4K4); experiment: MAP4K5(h) Eurofins kinase panel; settings: Compound concentration 1.0 uM
Mitogen-activated protein kinase kinase kinase kinase 5 (Homo sapiens), sequence (Q9Y4K4 whole entry, looked up): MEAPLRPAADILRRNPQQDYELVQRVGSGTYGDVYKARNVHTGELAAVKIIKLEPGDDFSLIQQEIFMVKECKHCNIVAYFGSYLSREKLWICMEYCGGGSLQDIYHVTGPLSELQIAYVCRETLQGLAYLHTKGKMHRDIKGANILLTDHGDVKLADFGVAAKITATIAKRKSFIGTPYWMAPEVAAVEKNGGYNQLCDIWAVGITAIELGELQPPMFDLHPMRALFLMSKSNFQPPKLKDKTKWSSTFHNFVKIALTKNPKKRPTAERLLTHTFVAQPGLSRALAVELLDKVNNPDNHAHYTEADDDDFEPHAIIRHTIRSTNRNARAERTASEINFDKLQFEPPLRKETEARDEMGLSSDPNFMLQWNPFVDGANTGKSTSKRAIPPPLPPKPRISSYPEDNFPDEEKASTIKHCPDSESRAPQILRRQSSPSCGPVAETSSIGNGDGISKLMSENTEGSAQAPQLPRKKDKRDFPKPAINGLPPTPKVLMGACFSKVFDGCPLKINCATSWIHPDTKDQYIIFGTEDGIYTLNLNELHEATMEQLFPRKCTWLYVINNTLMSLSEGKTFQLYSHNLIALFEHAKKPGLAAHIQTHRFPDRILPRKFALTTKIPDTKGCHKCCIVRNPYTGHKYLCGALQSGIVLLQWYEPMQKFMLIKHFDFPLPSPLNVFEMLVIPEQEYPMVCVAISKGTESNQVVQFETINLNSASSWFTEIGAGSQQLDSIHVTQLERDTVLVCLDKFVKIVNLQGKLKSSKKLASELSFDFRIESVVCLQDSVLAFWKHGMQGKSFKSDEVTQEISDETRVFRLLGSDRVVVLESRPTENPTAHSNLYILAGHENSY

[7] = target: Maternal embryonic leucine zipper kinase (Homo sapiens) (UniProt Q14680); experiment: MELK(h) Eurofins kinase panel; settings: Compound concentration 1.0 uM
Maternal embryonic leucine zipper kinase (Homo sapiens), sequence (Q14680 whole entry, looked up): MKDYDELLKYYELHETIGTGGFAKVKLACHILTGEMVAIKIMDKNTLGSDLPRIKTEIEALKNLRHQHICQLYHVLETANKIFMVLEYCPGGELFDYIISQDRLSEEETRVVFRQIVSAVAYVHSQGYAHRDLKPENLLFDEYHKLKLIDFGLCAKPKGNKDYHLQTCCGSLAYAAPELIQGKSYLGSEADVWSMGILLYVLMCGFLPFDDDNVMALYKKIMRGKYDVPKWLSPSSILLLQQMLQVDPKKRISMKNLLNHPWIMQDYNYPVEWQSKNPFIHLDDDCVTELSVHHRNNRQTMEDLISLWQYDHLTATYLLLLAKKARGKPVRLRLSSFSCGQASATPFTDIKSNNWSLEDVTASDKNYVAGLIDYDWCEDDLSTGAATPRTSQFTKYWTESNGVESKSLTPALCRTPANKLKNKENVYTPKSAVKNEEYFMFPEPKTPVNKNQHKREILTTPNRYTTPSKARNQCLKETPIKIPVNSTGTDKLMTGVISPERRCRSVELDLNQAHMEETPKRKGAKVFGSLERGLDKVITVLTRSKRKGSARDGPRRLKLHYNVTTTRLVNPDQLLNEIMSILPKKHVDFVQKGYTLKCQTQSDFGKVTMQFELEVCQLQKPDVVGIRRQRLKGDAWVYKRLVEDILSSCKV

[8] = target: T3, Dual specificity mitogen-activated protein kinase kinase 7 (Homo sapiens) (UniProt O14733); experiment: MKK7beta(h) Eurofins kinase panel; settings: Compound concentration 1.0 uM
T3 sequence (whole entry): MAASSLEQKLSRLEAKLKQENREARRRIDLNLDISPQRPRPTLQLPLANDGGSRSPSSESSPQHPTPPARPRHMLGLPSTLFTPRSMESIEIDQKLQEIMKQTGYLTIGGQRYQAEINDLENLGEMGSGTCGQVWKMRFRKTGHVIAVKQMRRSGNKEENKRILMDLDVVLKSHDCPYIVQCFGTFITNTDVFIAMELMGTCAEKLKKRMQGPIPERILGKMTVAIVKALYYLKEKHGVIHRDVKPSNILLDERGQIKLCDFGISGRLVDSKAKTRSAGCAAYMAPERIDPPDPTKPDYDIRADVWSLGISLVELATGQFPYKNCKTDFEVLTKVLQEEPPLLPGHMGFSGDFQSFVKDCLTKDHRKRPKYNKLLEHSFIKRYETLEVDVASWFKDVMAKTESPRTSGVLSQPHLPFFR

[9] = target: T4, Serine/threonine-protein kinase Nek2 (Homo sapiens) (UniProt P51955); experiment: NEK2(h) Eurofins kinase panel; settings: Compound concentration 1.0 uM
T4 sequence (whole entry): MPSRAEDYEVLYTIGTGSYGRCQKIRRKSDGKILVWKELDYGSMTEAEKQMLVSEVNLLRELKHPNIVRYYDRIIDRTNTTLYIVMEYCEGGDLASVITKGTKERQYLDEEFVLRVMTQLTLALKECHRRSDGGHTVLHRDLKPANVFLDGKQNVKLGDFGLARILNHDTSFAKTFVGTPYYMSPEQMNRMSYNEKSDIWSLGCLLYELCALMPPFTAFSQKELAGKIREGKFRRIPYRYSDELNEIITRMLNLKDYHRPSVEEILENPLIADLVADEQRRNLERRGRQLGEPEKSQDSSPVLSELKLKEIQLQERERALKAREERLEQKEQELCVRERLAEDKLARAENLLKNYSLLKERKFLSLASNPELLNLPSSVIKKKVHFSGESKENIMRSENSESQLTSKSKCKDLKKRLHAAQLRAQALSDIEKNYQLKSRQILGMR

[10] = target: Non-receptor tyrosine-protein kinase TYK2 (Homo sapiens) (UniProt P29597); experiment: TYK2(h) Eurofins kinase panel; settings: Compound concentration 1.0 uM
Non-receptor tyrosine-protein kinase TYK2 (Homo sapiens), sequence (P29597 whole entry): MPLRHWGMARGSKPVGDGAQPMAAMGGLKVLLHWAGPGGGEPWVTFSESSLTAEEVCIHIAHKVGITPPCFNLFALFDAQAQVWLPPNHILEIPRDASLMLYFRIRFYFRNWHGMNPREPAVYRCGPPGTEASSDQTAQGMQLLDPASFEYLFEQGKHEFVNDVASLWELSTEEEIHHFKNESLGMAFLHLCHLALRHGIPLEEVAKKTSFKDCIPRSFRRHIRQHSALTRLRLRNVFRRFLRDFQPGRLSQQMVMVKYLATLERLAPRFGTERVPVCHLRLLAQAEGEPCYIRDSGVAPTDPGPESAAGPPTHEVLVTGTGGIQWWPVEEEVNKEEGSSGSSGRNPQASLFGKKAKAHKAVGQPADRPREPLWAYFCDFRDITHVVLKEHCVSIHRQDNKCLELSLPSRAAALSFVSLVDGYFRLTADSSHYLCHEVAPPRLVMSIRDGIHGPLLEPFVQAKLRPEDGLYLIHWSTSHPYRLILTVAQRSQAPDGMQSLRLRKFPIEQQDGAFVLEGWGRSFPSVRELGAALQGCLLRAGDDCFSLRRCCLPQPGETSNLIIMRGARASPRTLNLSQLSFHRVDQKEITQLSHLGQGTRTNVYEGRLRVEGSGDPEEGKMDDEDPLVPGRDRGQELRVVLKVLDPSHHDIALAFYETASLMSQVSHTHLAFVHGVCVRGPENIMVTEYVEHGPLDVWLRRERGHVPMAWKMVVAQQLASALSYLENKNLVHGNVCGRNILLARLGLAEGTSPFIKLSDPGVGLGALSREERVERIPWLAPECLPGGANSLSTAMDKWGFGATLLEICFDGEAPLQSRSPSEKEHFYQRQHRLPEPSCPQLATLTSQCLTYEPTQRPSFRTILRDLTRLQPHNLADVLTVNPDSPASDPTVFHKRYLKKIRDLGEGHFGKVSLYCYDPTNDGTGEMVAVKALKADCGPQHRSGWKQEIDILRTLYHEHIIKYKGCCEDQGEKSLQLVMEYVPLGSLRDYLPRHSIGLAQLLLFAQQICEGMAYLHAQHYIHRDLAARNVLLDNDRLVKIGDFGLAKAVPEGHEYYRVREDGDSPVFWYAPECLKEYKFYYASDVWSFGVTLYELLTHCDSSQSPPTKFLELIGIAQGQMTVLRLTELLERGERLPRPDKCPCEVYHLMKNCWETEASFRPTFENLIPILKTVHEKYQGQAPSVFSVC

[11] = target: Beta-3 adrenergic receptor (Homo sapiens) (UniProt P13945); settings: Compound concentration 10.0 uM
Beta-3 adrenergic receptor (Homo sapiens), sequence (P13945 whole entry, looked up): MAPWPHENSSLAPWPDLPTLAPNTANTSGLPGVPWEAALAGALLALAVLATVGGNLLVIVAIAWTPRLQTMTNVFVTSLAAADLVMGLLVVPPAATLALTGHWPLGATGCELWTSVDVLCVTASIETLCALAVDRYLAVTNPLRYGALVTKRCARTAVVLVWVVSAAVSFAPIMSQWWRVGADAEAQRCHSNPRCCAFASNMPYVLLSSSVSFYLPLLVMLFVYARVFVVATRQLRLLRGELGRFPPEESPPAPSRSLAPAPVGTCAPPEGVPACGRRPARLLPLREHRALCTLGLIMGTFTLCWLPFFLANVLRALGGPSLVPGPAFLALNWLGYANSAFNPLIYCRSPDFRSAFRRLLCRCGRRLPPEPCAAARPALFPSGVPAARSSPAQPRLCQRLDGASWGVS

Casein kinase II subunit alpha (Homo sapiens), sequence (P68400 whole entry, looked up): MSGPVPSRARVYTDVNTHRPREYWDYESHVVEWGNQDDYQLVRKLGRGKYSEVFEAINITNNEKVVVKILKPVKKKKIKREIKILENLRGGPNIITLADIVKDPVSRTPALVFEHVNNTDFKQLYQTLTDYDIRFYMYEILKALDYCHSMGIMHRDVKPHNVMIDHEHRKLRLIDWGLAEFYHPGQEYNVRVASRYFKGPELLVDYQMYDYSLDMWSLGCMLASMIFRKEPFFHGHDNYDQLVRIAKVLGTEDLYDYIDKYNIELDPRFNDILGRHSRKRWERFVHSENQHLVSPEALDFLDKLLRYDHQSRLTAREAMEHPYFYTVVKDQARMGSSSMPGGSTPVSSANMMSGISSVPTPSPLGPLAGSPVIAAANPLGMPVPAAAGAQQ

CCc1ccccc1C(=O)Nc1n[nH]c2c(C)c(F)c(C3C(C#N)=C(C)N(C)C(C)=C3C#N)cc12 [BAY-3827]
inactive: % residual kinase activity [1] 93% | % residual kinase activity [2] 58% | % residual kinase activity [3] 99% | % residual kinase activity [4] 106% | % residual kinase activity [5] 104% | % residual kinase activity [6] 95% | % residual kinase activity [7] 39% | % residual kinase activity [8] 103% | % residual kinase activity [9] 91% | % residual kinase activity [10] 87%

CC1=C(C#N)C(c2ccc3c(c2)c(NC(=O)c2ccccc2C)nn3C)C(C#N)=C(C)N1 [BAY-974]
inactive: inhibition [11] -3.33%
